# From patent publication US20110020801A1, “Carboxylesterase-1 Polymorphisms and Methods of Use Therefor” (priority 2007, published 2011)
# Where two headings read alike, the source gives them in different places.
# Key:
# WT CES1 = target: T1, WT CES1 (Homo sapiens, UniProt P23141); experiment: MPH hydrolysis to ritalinic acid by S9 of cells expressing WT CES1 (HPLC); type: biochemical; conditions: S9 0.5 mg/mL, 37° C., 2 hours, mean ± S.D. (n = 3), listed as d-isomer
# T1 construct: inserting a stop codon after CES1A1 gene to yield the constructs expressing CES1 without V5-His tag; expressed in transfected cells
# T1 sequence (P23141 18-567): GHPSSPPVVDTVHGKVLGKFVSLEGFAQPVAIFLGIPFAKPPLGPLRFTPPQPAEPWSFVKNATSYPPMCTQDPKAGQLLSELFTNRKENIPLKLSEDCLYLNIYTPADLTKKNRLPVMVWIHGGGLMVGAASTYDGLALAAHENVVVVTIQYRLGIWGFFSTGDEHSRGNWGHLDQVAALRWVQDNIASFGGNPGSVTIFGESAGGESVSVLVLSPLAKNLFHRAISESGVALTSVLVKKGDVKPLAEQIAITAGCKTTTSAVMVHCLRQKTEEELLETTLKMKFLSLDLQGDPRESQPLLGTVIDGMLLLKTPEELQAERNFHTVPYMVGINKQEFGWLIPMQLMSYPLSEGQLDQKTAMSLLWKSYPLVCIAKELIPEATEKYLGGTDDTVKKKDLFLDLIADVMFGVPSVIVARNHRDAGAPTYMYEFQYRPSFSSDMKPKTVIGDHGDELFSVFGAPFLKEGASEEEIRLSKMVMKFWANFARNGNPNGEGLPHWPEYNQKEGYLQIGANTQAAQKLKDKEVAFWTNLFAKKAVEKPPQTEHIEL
# Source text: The desired plasmid was designed such that the recombinant CES1 would be expressed in mammalian cells with a V5-His tag to facilitate detection and purification. Additionally, another plasmid was generated by inserting a stop codon after CES1A1 gene to yield the constructs expressing CES1 without V5-His tag. […] Thus, only untagged CES1 and its associated mutants were used in the enzymatic hydrolysis study. Two constructs of CES1 mutations, p.Gly143Glu and p.Asp260fs, were generated using a site-directed mutagenesis assay. All constructs were subjected to DNA sequencing analysis to confirm that the desired plasmids were obtained. The identified CES1A1 plasmids (WT, p.Gly143Glu, and p.Asp260fs) were co-transfected with pOG44 plasmid at a ratio of 1:10 into Flp-In™-293 cells using […] (Invitrogen, Carlsbad, Calif.). Additionally, the self-ligated pcDNA5/FRT/V5-His-TOPO® vector was included as a vector control. Twenty-four hours after transfection, cells were washed with PBS and fresh complete medium (Dulbecco's modified Eagle's medium containing 10% fetal bovine serum) was added. […]
# After attaining approximately 95% confluence, cells were rinsed and harvested in PBS containing 10 mM HEPES (pH 7.4). […] The protein concentration was determined using a Pierce BCA assay kit (Rockford, Ill.).
# For the study of MPH hydrolysis, the reaction was conducted in 1.5 mL eppendorf tubes with a final S9 concentration of 0.5 mg/mL at a total volume of 100 μL. […] Concentrations of the primary phase I MPH metabolite produced via hydrolysis, ritalinic acid (RA), was determined utilizing an established HPLC method described below.
# Thus, following the enzymatic assay, the values determined for spontaneous PNP and RA hydrolysis were subtracted from the total PNP and RA production. […] All collected data were fit to the Michaelis-Menten equation, and kinetic parameters were calculated using nonlinear regression analysis with Graphpad Prism software (Graphpad Software Inc., San Diego, Calif.) […]
# [1] = Pharmacokinetic study of orally administered racemic MPH in normal volunteers; type: in vivo, human; conditions: human, plasma
# Procedure: Analysis of Pharmacokinetic, Hemodynamic, and Statistical Data. Standard pharmacokinetic analyses were applied to the MPH data using WinNonLin software (Pharsight, Mountainview, Calif.) and are described in a previous publication.^10 The AUC, Cmax, and t1/2 were analyzed using the Extreme Studentized Deviate (ESD) single-outlier procedure^12 to determine whether the parameter measurements for the slow metabolizer constituted true statistical outliers. For each parameter, the ESD procedure confirmed the measurement as an outlier at the p<0.01 level. Because this procedure is known to be conservative, the data from the aberrant metabolizer were reassessed using a similar procedure with respect to the normal participants only.
# [2] = mean ±SD of all other subjects, single oral 0.3 mg/kg racemic MPH
smiles,measurement,setting,value
"COC(=O)[C@H](c1ccccc1)[C@H]1CCCCN1 [d-MPH, methylphenidate]",Vmax,WT CES1,177.2 pmole/min/mg protein
same,AUC,"[1]; oral, 0.3 mg/kg, Table 1, 19 study peers, read-out: AUC, Mean (±SD)",78.6 ng·h/mL
same,Cmax,"[1]; oral, 0.3 mg/kg, Table 1, 19 study peers, read-out: Cmax, Mean (±SD)",13.8 ng/mL
same,half-life,"[1]; oral, 0.3 mg/kg, Table 1, 19 study peers, read-out: t1/2, Mean (±SD) (converted)",3 h
same,Tmax,[1]; [2],2.3 ± 0.8 h
same,half-life,"[1]; mean ±SD of all other subjects, single oral 0.3 mg/kg racemic MPH, read-out: t1/2 (converted)",2.8 ± 0.4 h
same,AUC(0-inf),[1]; [2],83 ± 22 ng·h/mL
same,Cmax,"[1]; mean ±SD of all other subjects, single oral 0.3 mg/kg racemic MPH, read-out: Cmax",15 ± 3 ng/mL
same,AUC,"[1]; male, oral, 0.3 mg/kg, Table 1, aberrant metabolizer, read-out: AUC, Outlier",209 ng·h/mL
same,Cmax,"[1]; male, oral, 0.3 mg/kg, Table 1, aberrant metabolizer, read-out: Cmax, Outlier",36.7 ng/mL
same,half-life,"[1]; male, oral, 0.3 mg/kg, Table 1, aberrant metabolizer, read-out: t1/2, Outlier (converted)",5.4 h
same,Tmax,"[1]; male, slow metabolizer, single oral 0.3 mg/kg racemic MPH",3 h
same,half-life,"[1]; male, slow metabolizer, single oral 0.3 mg/kg racemic MPH, read-out: t1/2 (converted)",5.4 h
same,AUC(0-inf),"[1]; male, slow metabolizer (heterozygous for p.Gly143Glu and p.Asp260fs), single oral 0.3 mg/kg racemic MPH",209 ng·h/mL
same,Cmax,"[1]; male, slow metabolizer, single oral 0.3 mg/kg racemic MPH, read-out: Cmax",37 ng/mL
